# Data published in US7067524B2, “Substituted phenyl naphthalenes as estrogenic agents” (Wyeth, priority 2001, dated 2006).
# Where two headings read alike, the source gives them in different places.
# Experiments:
# [1] = test system: metallothionein-II mRNA in Saos-2 cells; test: Regulation of metallothionein-II mRNA in Saos-2 cells; assay type: cell-based; parameters: unit not given here; settings: column head not given
# [2] = test system: Sexually immature 129 SvE mice; test: Mouse uterotrophic test procedure (Procedure 2); assay type: in vivo; settings: 50 mg/kg/day sc, days 22-25
# [3] = test system: Progesterone receptor mRNA; test: Progesterone receptor mRNA regulation in the preoptic area of the rat brain; assay type: in vivo
# casein kinase II mRNA = test: Rat mammotrophic assay (mammary end bud test procedure); assay type: in vivo; settings: ovariectomized rats, with progesterone 30 mg/kg
# [4] = test system: Sexually immature Sprague-Dawley rats; test: Rat uterotrophic test procedure (Procedure 1); assay type: in vivo
# Lewis rats [5] = test: Lewis rat adjuvant-induced arthritis, inhibition protocol; assay type: in vivo
# Lewis rats [6] = test: Lewis rat adjuvant-induced arthritis, treatment protocol; assay type: in vivo; settings: for Joint inflammation score: 10 mg/kg sc daily from Day 8 after adjuvant
# HLA-B27 rats [7] = settings: for Stool score (group's average score): 2=soft stool, 1=normal stool
# HLA-B27 rats [8] = settings: for Joint inflammation score: 10 mg/kg orally once per day
# [9] = Mankin scores, tarsal joints, 10 mg/kg, mean ± SD
# [10] = synovitis histology, tarsal joints, 10 mg/kg, mean ± SD
# [11] = colon histological score, 10 mg/kg orally for 46 days
# [12] = joint histology, 10 mg/kg orally for 46 days
smiles,measurement,setting,value
"Oc1ccc2cc(-c3ccc(O)c(Cl)c3)ccc2c1 [Example 1l, 6-(3-Chloro-4-hydroxyphenol)-2-naphthol]",Regulation of metallothionein-II mRNA,[1],5.5
"C[C@]12CC[C@@H]3c4ccc(O)cc4CC[C@H]3[C@@H]1CC[C@@H]2O [17β-estradiol, reference compound]",mean uterine weight (mg) ± SEM,[2],45.3 ± 1.9 mg
same,Progesterone receptor mRNA (arbitrary units; mean ± stdev),[3]; 30 μg/kg,557.1 ± 80.6 arbitrary units
same,Casein kinase II mRNA/18S rRNA (mean ± SEM),casein kinase II mRNA; 0.1 mg/kg sc 6 days,39.0 ± 5.4
"Oc1ccc(-c2ccc3cc(O)ccc3c2)cc1 [Example 1e, 6-(4-Hydroxyphenyl)-2-naphthol]",Regulation of metallothionein-II mRNA,[1],17.0
"Oc1ccc(-c2ccc3c(Br)c(O)ccc3c2)cc1 [Example 1o, 1-Bromo-6-(4-hydroxyphenyl)-2-naphthol]",Regulation of metallothionein-II mRNA,[1],5.7
"N#Cc1cc(-c2ccc(O)c(F)c2)cc2ccc(O)cc12 [Example 1av, 3-(3-Fluoro-4-hydroxyphenyl)-7-hydroxy-1-naphthonitrile]",mean uterine weight (mg) ± SEM,[4]; 2 mg/rat/day coadministered with 17α-ethinyl-17β-estradiol 0.06 μg/rat/day (antagonist mode),81.9 ± 4.2 mg
same,mean uterine weight (mg) ± SEM,"[4]; 2 mg/rat/day sc, days 19-21",23.3 ± 1.3 mg
same,mean uterine weight (mg) ± SEM,[2],12.6 ± 0.8 mg
same,Progesterone receptor mRNA (arbitrary units; mean ± stdev),[3]; 10 mg/kg,33.7 ± 20.6 arbitrary units
same,Casein kinase II mRNA/18S rRNA (mean ± SEM),casein kinase II mRNA; 20 mg/kg sc 6 days,1.06 ± 0.17
same,Joint inflammation score,"Lewis rats [5]; sc daily from Day 1, Day 1, maximal score 12",0.00
same,Joint inflammation score,"Lewis rats [5]; sc daily from Day 1, Day 2, maximal score 12",0.00
same,Joint inflammation score,"Lewis rats [5]; sc daily from Day 1, Day 3, maximal score 12",2.66
same,Joint inflammation score,"Lewis rats [5]; sc daily from Day 1, Day 4, maximal score 12",1.83
same,Joint inflammation score,"Lewis rats [5]; sc daily from Day 1, Day 5, maximal score 12",2.66
same,Joint inflammation score,"Lewis rats [5]; sc daily from Day 1, Day 6, maximal score 12",2.16
same,Joint inflammation score,"Lewis rats [5]; sc daily from Day 1, Day 7, maximal score 12",2.00
same,Joint inflammation score,"Lewis rats [5]; sc daily from Day 1, Day 8, maximal score 12",1.66
same,Joint inflammation score,"Lewis rats [5]; sc daily from Day 1, Day 9, maximal score 12",2.00
same,Joint inflammation score,"Lewis rats [5]; sc daily from Day 1, Day 10, maximal score 12",2.00
same,Joint inflammation score,"Lewis rats [5]; sc daily from Day 1, Day 11, maximal score 12",1.66
same,Joint inflammation score,"Lewis rats [5]; sc daily from Day 1, Day 12, maximal score 12",1.66
same,Joint inflammation score,"Lewis rats [5]; sc daily from Day 1, Day 13, maximal score 12",2.16
same,Joint inflammation score,"Lewis rats [5]; sc daily from Day 1, Day 14, maximal score 12",2.00
same,Joint inflammation score,"Lewis rats [5]; sc daily from Day 1, Day 15, maximal score 12",2.00
same,Joint inflammation score,"Lewis rats [5]; sc daily from Day 1, Day 16, maximal score 12",1.00
same,Joint inflammation score,"Lewis rats [5]; sc daily from Day 1, Day 17, maximal score 12",1.33
same,Joint inflammation score,"Lewis rats [6]; Day 1, maximal score 12",11.33
same,Joint inflammation score,"Lewis rats [6]; Day 2, maximal score 12",10.83
same,Joint inflammation score,"Lewis rats [6]; Day 3, maximal score 12",9.33
same,Joint inflammation score,"Lewis rats [6]; Day 4, maximal score 12",8.00
same,Joint inflammation score,"Lewis rats [6]; Day 5, maximal score 12",5.83
same,Joint inflammation score,"Lewis rats [6]; Day 6, maximal score 12",3.33
same,Joint inflammation score,"Lewis rats [6]; Day 7, maximal score 12",3.00
same,Joint inflammation score,"Lewis rats [6]; Day 8, maximal score 12",2.50
same,Joint inflammation score,"Lewis rats [6]; Day 9, maximal score 12",2.50
same,Joint inflammation score,"Lewis rats [6]; Day 10, maximal score 12",2.50
same,Joint inflammation score,"Lewis rats [6]; Day 11, maximal score 12",2.50
same,Joint inflammation score,"Lewis rats [6]; Day 12, maximal score 12",2.50
same,Joint inflammation score,"Lewis rats [6]; Day 13, maximal score 12",2.50
same,Joint inflammation score,"Lewis rats [6]; Day 14, maximal score 12",2.50
same,Joint inflammation score,"Lewis rats [6]; Day 15, maximal score 12",2.00
same,Joint inflammation score,"Lewis rats [6]; Day 16, maximal score 12",1.33
same,Joint inflammation score,"Lewis rats [6]; Day 17, maximal score 12",1.00
same,Cartilage Cells (0–3),Lewis rats [6]; [9],0.75 ± 0.42
same,Cartilage Structure (0–6),Lewis rats [6]; [9],1.83 ± 0.68
same,Saffranin-O/Fast Green Staining (0–4),Lewis rats [6]; [9],1.25 ± 0.52
same,Tidemark Integrity (0–1),Lewis rats [6]; [9],0
same,Total Mankin Score (0–14),Lewis rats [6]; [9],3.83 ± 1.21
same,Fibroplasia (0–3),Lewis rats [6]; [10],0.75 ± 0.42
same,Inflammatory Cells (0–3),Lewis rats [6]; [10],1.25 ± 0.42
same,Pannus (0–1),Lewis rats [6]; [10],0.33 ± 0.61
same,Synovial Structure (0–3),Lewis rats [6]; [10],1.58 ± 0.38
same,Total Synovitis Score (0–10),Lewis rats [6]; [10],3.83 ± 0.93
same,Time until stool character normalized,HLA-B27 rats [7]; 10 mg/kg orally daily,≤ 21 days
same,Stool score (group's average score),"HLA-B27 rats [7]; 10 mg/kg orally daily, Day 1, 3=diarrhea",2.75
same,Stool score (group's average score),"HLA-B27 rats [7]; 10 mg/kg orally daily, Day 2, 3=diarrhea",2.5
same,Stool score (group's average score),"HLA-B27 rats [7]; 10 mg/kg orally daily, Day 3, 3=diarrhea",2.25
same,Stool score (group's average score),"HLA-B27 rats [7]; 10 mg/kg orally daily, Day 4, 3=diarrhea",2.5
same,Stool score (group's average score),"HLA-B27 rats [7]; 10 mg/kg orally daily, Day 5, 3=diarrhea",2.25
same,Stool score (group's average score),"HLA-B27 rats [7]; 10 mg/kg orally daily, Day 6, 3=diarrhea",2.5
same,Stool score (group's average score),"HLA-B27 rats [7]; 10 mg/kg orally daily, Day 7, 3=diarrhea",2.5
same,Stool score (group's average score),"HLA-B27 rats [7]; 10 mg/kg orally daily, Day 8, 3=diarrhea",2
same,Stool score (group's average score),"HLA-B27 rats [7]; 10 mg/kg orally daily, Day 9, 3=diarrhea",2
same,Stool score (group's average score),"HLA-B27 rats [7]; 10 mg/kg orally daily, Day 10, 3=diarrhea",1.5
same,Stool score (group's average score),"HLA-B27 rats [7]; 10 mg/kg orally daily, Day 11, 3=diarrhea",1.5
same,Stool score (group's average score),"HLA-B27 rats [7]; 10 mg/kg orally daily, Day 12, 3=diarrhea",1.5
same,Stool score (group's average score),"HLA-B27 rats [7]; 10 mg/kg orally daily, Day 13, 3=diarrhea",1.75
same,Stool score (group's average score),"HLA-B27 rats [7]; 10 mg/kg orally daily, Day 14, 3=diarrhea",1.75
same,Stool score (group's average score),"HLA-B27 rats [7]; 10 mg/kg orally daily, Day 15, 3=diarrhea",1.5
same,Stool score (group's average score),"HLA-B27 rats [7]; 10 mg/kg orally daily, Day 16, 3=diarrhea",1.5
same,Stool score (group's average score),"HLA-B27 rats [7]; 10 mg/kg orally daily, Day 17, 3=diarrhea",1.25
same,Stool score (group's average score),"HLA-B27 rats [7]; 10 mg/kg orally daily, Day 18, 3=diarrhea",1.25
same,Stool score (group's average score),"HLA-B27 rats [7]; 10 mg/kg orally daily, Day 19, 3=diarrhea",1.25
same,Stool score (group's average score),"HLA-B27 rats [7]; 10 mg/kg orally daily, Day 20, 3=diarrhea",1.25
same,Stool score (group's average score),"HLA-B27 rats [7]; 10 mg/kg orally daily, Day 21, 3=diarrhea",1.25
same,Stool score (group's average score),"HLA-B27 rats [7]; 10 mg/kg orally daily, Day 22, 3=diarrhea",1
same,Stool score (group's average score),"HLA-B27 rats [7]; 10 mg/kg orally daily, Day 23, 3=diarrhea",1
same,Stool score (group's average score),"HLA-B27 rats [7]; 10 mg/kg orally daily, Day 24, 3=diarrhea",1
same,Stool score (group's average score),"HLA-B27 rats [7]; 10 mg/kg orally daily, Day 25, 3=diarrhea",1
same,Fibrosis (0–2),HLA-B27 rats [7]; [11],0.07 ± 0.13
same,Inflammation (0–3),HLA-B27 rats [7]; [11],1.13 ± 0.43
same,Lesion depth (0–2),HLA-B27 rats [7]; [11],0.38 ± 0.43
same,Total score,HLA-B27 rats [7]; [11],2.00 ± 1.14
same,Ulceration (0–2),HLA-B27 rats [7]; [11],0.44 ± 0.43
same,Joint inflammation score,HLA-B27 rats [8]; Day 29,0.5
same,Joint inflammation score,HLA-B27 rats [8]; Day 30,0.5
same,Joint inflammation score,HLA-B27 rats [8]; Day 31,0.5
same,Joint inflammation score,HLA-B27 rats [8]; Day 32,1
same,Joint inflammation score,HLA-B27 rats [8]; Day 33,1.75
same,Joint inflammation score,HLA-B27 rats [8]; Day 34,1.5
same,Joint inflammation score,HLA-B27 rats [8]; Day 35,1
same,Joint inflammation score,HLA-B27 rats [8]; Day 36,1.75
same,Joint inflammation score,HLA-B27 rats [8]; Day 37,1.75
same,Joint inflammation score,HLA-B27 rats [8]; Day 38,1.5
same,Joint inflammation score,HLA-B27 rats [8]; Day 39,0.75
same,Joint inflammation score,HLA-B27 rats [8]; Day 40,0.75
same,Joint inflammation score,HLA-B27 rats [8]; Day 41,0.5
same,Joint inflammation score,HLA-B27 rats [8]; Day 42,1.5
same,Joint inflammation score,HLA-B27 rats [8]; Day 43,1.25
same,Joint inflammation score,HLA-B27 rats [8]; Day 44,1.75
same,Joint inflammation score,HLA-B27 rats [8]; Day 45,1.25
same,Joint inflammation score,HLA-B27 rats [8]; Day 46,0.75
same,Mankin score (mean ± SD),HLA-B27 rats [8]; [12],4.5 ± 1.8
same,Synovitis score (mean ± SD),HLA-B27 rats [8]; [12],5.0 ± 2.5
"N#Cc1c(O)ccc2cc(-c3ccc(O)cc3)ccc12 [Example 1s, 2-Hydroxy-6-(4-hydroxyphenyl)-1-naphthonitrile]",Regulation of metallothionein-II mRNA,[1],4.9
"Oc1ccc(-c2ccc3c(Cl)c(O)ccc3c2)cc1 [Example 1p, 1-Chloro-6-(4-hydroxyphenyl)-2-naphthol]",Regulation of metallothionein-II mRNA,[1],6.0
